The subject of data set [1] is volunteers. The experiment in a line: Separate placebo-controlled study: change in triglyceride levels from baseline in volunteers (FIG. 3B-3D). The format is in vivo, humans. Particulars: intravenous 500, 1000 or 1500 mg/kg. As to the method: In a separate study, volunteers were divided into four groups. Each group was administered an intravenous dose of placebo or an intravenous dose of 500 mg/kg, 1000 mg/kg or 1500 mg/kg of HPBCD as shown in FIG. 3B. Blood samples were taken immediately prior to injection to establish a baseline triglyceride concentration, and at 24 hours (left bar) and 48 hours (right bar) post injection. Triglyceride levels are presented as the median average percentage change from baseline. […] The data in FIG. 3B were divided into two groups for further analysis. Group 1 consisted of the portion of the cohort which had baseline triglyceride levels greater than 100 mg/dL. Group 2 had baseline triglyceride levels less than or equal to 100 mg/dL. The average percentage change of triglyceride levels from baseline of Group 1 and Group 2 is shown in FIG. 3C and FIG. 3D respectively. […] This is consistent with the marked reduction (˜30%) in triglyceride levels observed for the one participant in FIG. 3A with a baseline triglyceride level of approximately 425 mg/dL.

For data set [2], the system named is volunteers. The experiment in a line: Triglyceride levels in volunteers after a single intravenous dose of HPBCD (FIG. 3A). The format is in vivo, humans. As to the method:
Twenty-nine volunteers were divided into five groups. Each group was administered an intravenous dose of 50 mg/kg, 250 mg/kg, 500 mg/kg, 1000 mg/kg or 1500 mg/kg of HPBCD as shown in FIG. 3A. Blood samples were taken immediately prior to injection to establish a baseline triglyceride concentration, and at 24 hours (D2) and 48 hours (D3) post injection for measurement of triglyceride levels. […] Overall, triglyceride levels of participants decreased, particularly evident in participants with higher baseline triglyceride concentrations.

The test system of data set [3] is LDL receptor deficient (LDLR−/−) mice. The experiment in a line: Serum triglyceride levels in LDLR−/− mouse model after 2 g/kg HPBCD. The format is in vivo. The source says:
LDL receptor deficient (LDLR^−/−) mice were divided into 6 Groups. Prior to the administration of 2 g/kg of HPBCD, Group 1 was fed with normal chow diet (NC) for 5 weeks and Group 2-Group 6 were fed with high-fat (42%), high-cholesterol (1.2%) Western diet (WD) for various durations up to 9 weeks. Experimental scheme and diet schedule is described in FIG. 1A. Mice of Group 1 were further categorized into 3 sub-Groups (e.g., Group 1.1, Group 1.2, and Group 1.3) according to the administration of HPBCD as shown in FIG. 1B. Blood samples were taken from the mouse models, after 5 weeks of feeding and at a certain period of time (e.g., 1 week, 2 weeks, 3 weeks, 4 weeks after 2 g/kg HPBCD treatment), for measurement of triglyceride levels in each model Group. […] (FIG. 2A).

This is an account of results in US20240398849A1, “METHODS FOR THE TREATMENT OF […] WITH CYCLODEXTRINS” (BEREN THERAPEUTICS P.B.C., priority 2022, published 2024).

For `CC(O)COC[C@H]1O[C@@H]2O[C@H]3[C@H](O)[C@@H](O)[C@@H](O[C@H]4[C@H](O)[C@@H](O)[C@@H](O[C@H]5[C@H](O)[C@@H](O)[C@@H](O[C@H]6[C@H](O)[C@@H](O)[C@@H](O[C@H]7[C@H](O)[C@@H](O)[C@@H](O[C@H]8[C@H](O)[C@@H](O)[C@@H](O[C@H]1[C@H](O)[C@H]2O)O[C@@H]8COCC(C)O)O[C@@H]7COCC(C)O)O[C@@H]6COCC(C)O)O[C@@H]5COCC(C)O)O[C@@H]4COCC(C)O)O[C@@H]3COCC(C)O` (stereo partly drawn) [HPBCD, 2-hydroxypropyl-beta-cyclodextrin], the “reduction in triglyceride levels, Group 1 (baseline >100 mg/dL) versus Group 2 (baseline ≤100 mg/dL)” value in data set [1] (24 h and 48 h, FIG. 3C and 3D) is “greater reduction in triglyceride levels was observed in participants in Group 1 than those in Group 2”. In addition, the “triglyceride levels, median average percentage change from baseline” value in data set [1] (24 h and 48 h post injection, any tested dose, FIG. 3B) is “did not increase”. In addition, the “reduction in triglyceride levels” value in data set [2] (one participant in FIG. 3A with baseline triglyceride level of approximately 425 mg/dL) is listed as around 30%. Moreover, the “triglyceride levels following administration (safety)” value in data set [2] (volunteers, intravenous 50, 250, 500, 1000 or 1500 mg/kg, 24 h and 48 h post injection, any tested dose, FIG. 3A) is listed as “did not significantly increase”. In addition, the “triglyceride levels of participants overall” value in data set [2] (volunteers, intravenous 50-1500 mg/kg, 24 h and 48 h post injection, particularly evident with higher baseline triglyceride) is “decreased”. Also, in data set [3] (Western diet (WD), blood sampled 1-4 weeks after treatment, FIG. 2A), the “triglyceride levels of WD-fed mice after the administration of HPBCD” value is “decreased over time”. Also, in data set [3] (normal chow diet (NC), FIG. 2B), the “triglyceride level of NC-fed mice after the administration of HPBCD” value was “decreased from 24 hours after the administration”.
